Values joined by “and” are separate entries in the source; they are usually repeats but may differ in a detail not shown here. Equal entries are not always repeated. Inconclusive results and toxic doses are left out.

In the assay the test system is BDF1 mice, P388 leukemia ip, median survival T/C. Put plainly: NCI In Vivo Anticancer Drug Screen. Data for tumor model P388 Leukemia (intraperitoneal) in B6D2F1 (BDF1) mice. Conditions: endpoint: median survival time, higher = longer survival. The gist of the method: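 T/C = treated-group survival ÷ vehicle-control survival; tumour transplanted into mice before dosing.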

[1] abbreviates: dose: 50.0 mg/kg/injection, schedule: Q01DX009 (ip), vehicle: saline with Tween-80.
[2] abbreviates: dose: 100.0 mg/kg/injection, schedule: Q01DX009 (ip), vehicle: saline with Tween-80.
[3] abbreviates: dose: 200.0 mg/kg/injection, schedule: Q01DX009 (ip), vehicle: saline with Tween-80.
The mark [4] stands for this setting: dose: 200.0 mg/kg/injection, schedule: Q01DX001 (ip), vehicle: saline with Tween-80.
Where [5] appears, read: dose: 400.0 mg/kg/injection, schedule: Q01DX001 (ip), vehicle: saline with Tween-80.
Where [6] appears, read: dose: 25.0 mg/kg/injection, schedule: Q01DX009 (ip), vehicle: saline with Tween-80.
[7] abbreviates: dose: 100.0 mg/kg/injection, schedule: Q04DX003 (ip), vehicle: Klucel (hydroxypropylcellulose) (HPC).
The mark [8] stands for this setting: dose: 200.0 mg/kg/injection, schedule: Q04DX003 (ip), vehicle: Klucel (hydroxypropylcellulose) (HPC).
The mark [9] stands for this setting: dose: 400.0 mg/kg/injection, schedule: Q04DX003 (ip), vehicle: Klucel (hydroxypropylcellulose) (HPC).

Take `NC(=O)c1nc(-c2ccccc2)c(-c2ccccc2)[nH]c1=O`: the T/C is, setting by setting: under setting [1], 109 % of control; under setting [2], 117 % of control; (dose: 100.0 mg/kg/injection, schedule: Q04DX003 (ip), vehicle: saline with Tween-80) 106 % of control; under setting [3], 99 % of control; (dose: 200.0 mg/kg/injection, schedule: Q04DX003 (ip), vehicle: saline with Tween-80) 102 % of control; (dose: 400.0 mg/kg/injection, schedule: Q04DX003 (ip), vehicle: saline with Tween-80) 116 % of control.

`CCCCC1C(=O)OC(C(C)C(O)CCCN=C(N)N)C(C)C=C(C)CCCCC(O)CC(O)CC(O)CC(O)CC(O)C(OC2OC(CO)C(O)C2O)C=C(C)C(O)CCCC(O)CCCC(O)CCC(C)C1O` (stereo not drawn): the T/C reads like this: (dose: 0.3 mg/kg/injection, schedule: Q01DX010 (ip), vehicle: carboxymethylcellulose (CMC)) 90 % of control; (dose: 0.6 mg/kg/injection, schedule: Q01DX010 (ip), vehicle: carboxymethylcellulose (CMC)) 90 % of control; (dose: 1.2 mg/kg/injection, schedule: Q01DX010 (ip), vehicle: carboxymethylcellulose (CMC)) 95 % of control; (dose: 2.5 mg/kg/injection, schedule: Q01DX010 (ip), vehicle: carboxymethylcellulose (CMC)) 90 % of control.

As for `OCC1(O)CCC1`, the T/C runs as follows: (dose: 75.0 mg/kg/injection, schedule: Q01DX009 (ip), vehicle: saline) 95 % of control; (dose: 100.0 mg/kg/injection, schedule: Q04DX003 (ip), vehicle: saline) 96 % of control; (dose: 150.0 mg/kg/injection, schedule: Q01DX009 (ip), vehicle: saline) 104 % of control; (dose: 200.0 mg/kg/injection, schedule: Q04DX003 (ip), vehicle: saline) 103 % of control; (dose: 300.0 mg/kg/injection, schedule: Q01DX009 (ip), vehicle: saline) 109 % of control; (dose: 400.0 mg/kg/injection, schedule: Q04DX003 (ip), vehicle: saline) 100 % of control.

Turning to `C#CC(C)(C)NC(=O)NC12CC3CC(CC(C3)C1)C2`, the T/C by setting is: under setting [4], 88 % of control; under setting [5], 95 % of control.

In the case of `O=CC(NC(=O)N(CCCl)N=O)C(O)C(O)C(O)CO` (stereo not drawn), the T/C runs as follows: (dose: 1.3 mg/kg/injection, schedule: Q01DX009 (ip), vehicle: saline) 157 % of control; (dose: 2.0 mg/kg/injection, schedule: Q01DX009 (ip), vehicle: saline) 198 % of control; (dose: 3.0 mg/kg/injection, schedule: Q01DX009 (ip), vehicle: saline) 230 % of control; (dose: 4.5 mg/kg/injection, schedule: Q01DX009 (ip), vehicle: saline) 238 % of control; (dose: 6.48 mg/kg/injection, schedule: Q04DX003 (ip), vehicle: saline) 250 % of control; (dose: 6.7 mg/kg/injection, schedule: Q01DX009 (ip), vehicle: saline) 238 % of control. The T/C runs as follows: (dose: 6.8 mg/kg/injection, schedule: Q01DX009 (ip), vehicle: saline) 169 % of control; (dose: 10.0 mg/kg/injection, schedule: Q01DX009 (ip), vehicle: saline) 203 % of control; (dose: 10.8 mg/kg/injection, schedule: Q04DX003 (ip), vehicle: saline) 514 % of control; (dose: 13.0 mg/kg/injection, schedule: Q01DX001 (ip), vehicle: saline) 238 % of control and 211 % of control; (dose: 18.0 mg/kg/injection, schedule: Q04DX003 (ip), vehicle: saline) 262 % of control; (dose: 20.0 mg/kg/injection, schedule: Q01DX001 (ip), vehicle: saline) 237 % of control and 203 % of control. The T/C runs as follows: (dose: 30.0 mg/kg/injection, schedule: Q01DX001 (ip), vehicle: saline) 253 % of control and 95 % of control; (dose: 45.0 mg/kg/injection, schedule: Q01DX001 (ip), vehicle: saline) 254 % of control.

Regarding `Cc1ccc(C)c(NC(=O)c2ccc(Cl)cc2)c1`, the T/C is 104 % of control (dose: 100.0 mg/kg/injection, schedule: Q01DX001 (ip), vehicle: saline with Tween-80); 104 % of control under setting [4]; 100 % of control under setting [5].

Turning to `COc1ccc(CCN2COc3ccc4ccc(=O)oc4c3C2)cc1OC`, the T/C (dose: 132.0 mg/kg/injection, schedule: Q01DX009 (ip), vehicle: saline with Tween-80) is 100 % of control; the T/C under setting [3] is 115 % of control; the T/C (dose: 300.0 mg/kg/injection, schedule: Q01DX009 (ip), vehicle: saline with Tween-80) is 115 % of control.

With `Clc1ccc(CBr)c2ccccc12`, the T/C (dose: 12.5 mg/kg/injection, schedule: Q01DX009 (ip), vehicle: saline with Tween-80) is 108 % of control; the T/C under setting [6] is 106 % of control; the T/C under setting [1] was 110 % of control.

In the case of `CC1(CBr)Oc2ccccc2O1`, the T/C runs as follows: (dose: 100.0 mg/kg/injection, schedule: Q01DX009 (ip), vehicle: Klucel (hydroxypropylcellulose) (HPC)) 104 % of control; under setting [7], 100 % of control; (dose: 200.0 mg/kg/injection, schedule: Q01DX009 (ip), vehicle: Klucel (hydroxypropylcellulose) (HPC)) 108 % of control; under setting [8], 95 % of control; (dose: 400.0 mg/kg/injection, schedule: Q01DX009 (ip), vehicle: Klucel (hydroxypropylcellulose) (HPC)) 116 % of control; under setting [9], 108 % of control.

With `CC1CCC2(C)CCC3(C)C(=CCC4C5(C)CCC(OC(=O)c6ccccc6)C(C)(C)C5CCC43C)C2C1C` (stereo not drawn), the T/C is 100 % of control (dose: 75.0 mg/kg/injection, schedule: Q04DX003 (ip), vehicle: saline with Tween-80); 100 % of control (dose: 150.0 mg/kg/injection, schedule: Q04DX003 (ip), vehicle: saline with Tween-80); 105 % of control (dose: 300.0 mg/kg/injection, schedule: Q04DX003 (ip), vehicle: saline with Tween-80).

As to `Cc1ccc2oc(-c3ccccc3)c(O)c(=O)c2c1`, the T/C is, setting by setting: under setting [2], 95 % of control; under setting [3], 100 % of control; (dose: 400.0 mg/kg/injection, schedule: Q01DX009 (ip), vehicle: saline with Tween-80) 90 % of control.

On to `Cc1cc(C)c(NS(=O)(=O)c2ccc([N+](=O)[O-])cc2)c(C)c1`, for which the T/C (dose: 75.0 mg/kg/injection, schedule: Q01DX001 (ip), vehicle: saline with Tween-80) was 100 % of control; the T/C (dose: 150.0 mg/kg/injection, schedule: Q01DX001 (ip), vehicle: saline with Tween-80) was 90 % of control; the T/C (dose: 300.0 mg/kg/injection, schedule: Q01DX001 (ip), vehicle: saline with Tween-80) was 100 % of control.

For the compound `O=[N+]([O-])c1ccc(SCc2ccccc2)c2c1no[n+]2[O-]`, the T/C (dose: 15.0 mg/kg/injection, schedule: Q01DX009 (ip), vehicle: saline with Tween-80) is 105 % of control; the T/C (dose: 30.0 mg/kg/injection, schedule: Q01DX009 (ip), vehicle: saline with Tween-80) was 96 % of control; the T/C (dose: 60.0 mg/kg/injection, schedule: Q01DX009 (ip), vehicle: saline with Tween-80) is 93 % of control.

For the compound `COc1cccc2c1C(=O)c1c(O)c(COC3CC(N)C(O)C(C)O3)cc(O)c1C2=O` (stereo not drawn), the T/C is, setting by setting: (dose: 12.5 mg/kg/injection, schedule: Q01DX009 (ip), vehicle: water) 100 % of control; (dose: 25.0 mg/kg/injection, schedule: Q01DX009 (ip), vehicle: water) 100 % of control.

`CCCC(=O)OCC1OC(n2cnc3c(=S)nc(N)[nH]c32)C(OC(=O)CCC)C1OC(=O)CCC` (stereo not drawn): the T/C reads like this: (dose: 16.5 mg/kg/injection, schedule: Q04DX003 (ip), vehicle: saline with Tween-80) 177 % of control; (dose: 25.0 mg/kg/injection, schedule: Q04DX003 (ip), vehicle: saline with Tween-80) 154 % of control; (dose: 37.5 mg/kg/injection, schedule: Q04DX003 (ip), vehicle: saline with Tween-80) 161 % of control.

For `C[C@]12CC[C@@H]3c4ccc(O)cc4CC[C@H]3[C@@H]1C[C@@H](O)[C@@H]2O`, the T/C runs as follows: (dose: 12.5 mg/kg/injection, schedule: Q01DX009 (ip), vehicle: Klucel (hydroxypropylcellulose) (HPC)) 90 % of control; (dose: 25.0 mg/kg/injection, schedule: Q01DX009 (ip), vehicle: Klucel (hydroxypropylcellulose) (HPC)) 100 % of control; (dose: 50.0 mg/kg/injection, schedule: Q01DX009 (ip), vehicle: Klucel (hydroxypropylcellulose) (HPC)) 109 % of control; under setting [7], 104 % of control; under setting [8], 104 % of control; under setting [9], 100 % of control.

In the case of `C[n+]1c(/C=N/NC(N)=S)ccc2ccccc21`, the T/C is, setting by setting: under setting [6], 97 % of control; under setting [1], 106 % of control; under setting [2], 113 % of control.
